What was measured:
Type in all cases: in vivo
[1] = tested on: wheat (Triticum aestivum); experiment: Test A postemergence, wheat; conditions: 0 to 100 scale
Description: (§1) Seeds of plant species selected from barnyardgrass (Echinochloa crus-galli), kochia (Kochia scoparia), ragweed (common ragweed, Ambrosia elatior), ryegrass, Italian (Lolium multiflorum), foxtail, giant (Setaria faberii), foxtail, green (Setaria viridis), and pigweed (Amaranthus retroflexus) were planted into a blend of loam soil and sand and treated preemergence with a directed soil spray using test chemicals formulated in a non-phytotoxic solvent mixture which included a surfactant.
(§2) At the same time, plants selected from these weed species and also wheat (Triticum aestivum), corn (Zea mays), blackgrass (Alopecurus myosuroides), and galium (catchweed bedstraw, Galium aparine) were planted in pots containing the same blend of loam soil and sand and treated with postemergence applications of test chemicals formulated in the same manner. Plants ranged in height from 2 to 10 cm and were in the one- to two-leaf stage for the postemergence treatment. Treated plants and untreated controls were maintained in a greenhouse for approximately 10 d, after which time all treated plants were compared to untreated controls and visually evaluated for injury. Plant response ratings, summarized in Table A, are based on a 0 to 100 scale where 0 is no effect and 100 is complete control. A dash (-) response means no test result.

[2] = tested on: ryegrass, Italian (Lolium multiflorum); experiment: Test A preemergence, Italian ryegrass; conditions: 0 to 100 scale, 0 is no effect, 100 is complete control
Description: as §1, §2

[3] = tested on: pigweed (Amaranthus retroflexus); experiment: Test A preemergence, pigweed; conditions: 0 to 100 scale, 0 is no effect, 100 is complete control
Description: as §1, §2

[4] = tested on: ducksalad (Heteranthera limosa); experiment: Test B flooded paddy test, ducksalad; conditions: Flood, 250 g ai/ha, applied to paddy water, 2-leaf stage, visual evaluation after 13 to 15 d
Experimental: (§3) Plant species in the flooded paddy test selected from rice (Oryza sativa), sedge, umbrella (small-flower umbrella sedge, Cyperus difformis), ducksalad (Heteranthera limosa), and barnyardgrass (Echinochloa crus-galli) were grown to the 2-leaf stage for testing. At the time of treatment, test pots were flooded to 3 cm above the soil surface, treated by application of test compounds directly to the paddy water, and then maintained at that water depth for the duration of the test. Treated plants and controls were maintained in a greenhouse for 13 to 15 d, after which time all species were compared to controls and visually evaluated. Plant response ratings, summarized in Table B, are based on a scale of 0 to 100 where 0 is no effect and 100 is complete control. A dash (-) response means no test result.

[5] = tested on: barnyardgrass (Echinochloa crus-galli); experiment: Test A postemergence, barnyardgrass; conditions: 0 to 100 scale
Description: as §1, §2

[6] = tested on: ryegrass, Italian (Lolium multiflorum); experiment: Test A postemergence, Italian ryegrass; conditions: 0 to 100 scale
Description: as §1, §2

[7] = tested on: barnyardgrass (Echinochloa crus-galli); experiment: Test A preemergence, barnyardgrass; conditions: 0 to 100 scale, 0 is no effect, 100 is complete control
Description: as §1, §2

[8] = tested on: ragweed (common ragweed, Ambrosia elatior); experiment: Test A postemergence, ragweed; conditions: 0 to 100 scale
Description: as §1, §2

[9] = tested on: pigweed (Amaranthus retroflexus); experiment: Test A postemergence, pigweed; conditions: 0 to 100 scale
Description: as §1, §2

[10] = tested on: barnyardgrass (Echinochloa crus-galli); experiment: Test B flooded paddy test, barnyardgrass; conditions: Flood, 250 g ai/ha, applied to paddy water, 2-leaf stage, visual evaluation after 13 to 15 d
Experimental: as §3

[11] = tested on: galium (catchweed bedstraw, Galium aparine); experiment: Test A postemergence, galium; conditions: 0 to 100 scale
Description: as §1, §2

kochia (Kochia scoparia) [12] = experiment: Test A preemergence, kochia; conditions: 0 to 100 scale, 0 is no effect, 100 is complete control
Description: as §1, §2

[13] = tested on: ragweed (common ragweed, Ambrosia elatior); experiment: Test A preemergence, ragweed; conditions: 0 to 100 scale, 0 is no effect, 100 is complete control
Description: as §1, §2

[14] = tested on: foxtail, giant (Setaria faberii); experiment: Test A postemergence, giant foxtail; conditions: 0 to 100 scale
Description: as §1, §2

[15] = tested on: blackgrass (Alopecurus myosuroides); experiment: Test A postemergence, blackgrass; conditions: 0 to 100 scale
Description: as §1, §2

rice (Oryza sativa) = experiment: Test B flooded paddy test, rice; conditions: Flood, 250 g ai/ha, applied to paddy water, 2-leaf stage, visual evaluation after 13 to 15 d
Experimental: as §3

[16] = tested on: foxtail, giant (Setaria faberii); experiment: Test A preemergence, giant foxtail; conditions: 0 to 100 scale, 0 is no effect, 100 is complete control
Description: as §1, §2

[17] = tested on: sedge, umbrella (small-flower umbrella sedge, Cyperus difformis); experiment: Test B flooded paddy test, umbrella sedge; conditions: Flood, 250 g ai/ha, applied to paddy water, 2-leaf stage, visual evaluation after 13 to 15 d
Experimental: as §3

kochia (Kochia scoparia) [18] = experiment: Test A postemergence, kochia; conditions: 0 to 100 scale
Description: as §1, §2

corn (Zea mays) = experiment: Test A postemergence, corn; conditions: 0 to 100 scale, 0 no effect, 100 complete control
Description: as §1, §2

[19] = 500 g ai/ha, 0 is no effect, 100 is complete control
[20] = 125 g ai/ha, 0 no effect, 100 complete control
[21] = 500 g ai/ha, 0 no effect, 100 complete control
[22] = 31 g ai/ha, 0 no effect, 100 complete control

C[C@@H](Nc1ncc(C(F)(F)F)c(N)n1)c1coc2ccccc12 [Compound 52, N2-[(1R)-1-(3-benzofuranyl)ethyl]-5-(trifluoromethyl)-2,4-pyrimidinediamine]
Wheat plant response rating [1, 19]: 30
plant injury at 125 g/ha ([1]; Triticum aestivum, post-emergence, 240 h, 125 g ai/ha, 0 no effect, 100 complete control, read-out: Plant response rating, Wheat): 0%
Ryegrass, Italian plant response rating ([2]; 125 g ai/ha): 80
Ryegrass, Italian plant response rating ([2]; 500 g ai/ha): 90
Pigweed plant response rating ([3]; 125 g ai/ha): 100
Pigweed plant response rating ([3]; 500 g ai/ha): 100
pest or weed control at 250 g/ha ([4]; Heteranthera limosa, 360 h, read-out: Plant response rating, Ducksalad (0 to 100 scale, 0 is no effect, 100 is complete control)): 100%
Barnyardgrass plant response rating [5, 19]: 90
pest or weed control at 125 g/ha ([5]; Echinochloa crus-galli, post-emergence, 240 h, 125 g ai/ha, 0 no effect, 100 complete control, read-out: Plant response rating, Barnyardgrass): 30%
Ryegrass, Italian plant response rating [6, 19]: 100
pest or weed control at 125 g/ha ([6]; Lolium multiflorum, post-emergence, 240 h, 125 g ai/ha, 0 no effect, 100 complete control, read-out: Plant response rating, Ryegrass, Italian): 60%
Barnyardgrass plant response rating ([7]; 125 g ai/ha): 70
Barnyardgrass plant response rating ([7]; 500 g ai/ha): 100
Ragweed plant response rating [8, 19]: 100
pest or weed control at 125 g/ha ([8]; Ambrosia artemisiifolia, post-emergence, 240 h, 125 g ai/ha, 0 no effect, 100 complete control, read-out: Plant response rating, Ragweed): 80%
Pigweed plant response rating [9, 19]: 100
pest or weed control at 125 g/ha ([9]; Amaranthus retroflexus, post-emergence, 240 h, 125 g ai/ha, 0 no effect, 100 complete control, read-out: Plant response rating, Pigweed): 100%
pest or weed control at 250 g/ha ([10]; Echinochloa crus-galli, 360 h, read-out: Plant response rating, Barnyardgrass (0 to 100 scale, 0 is no effect, 100 is complete control)): 90%
Galium plant response rating [11, 19]: 90
pest or weed control at 125 g/ha ([11]; Galium, post-emergence, 240 h, 125 g ai/ha, 0 no effect, 100 complete control, read-out: Plant response rating, Galium): 80%
Kochia plant response rating (kochia (Kochia scoparia) [12]; 125 g ai/ha): 90
Kochia plant response rating (kochia (Kochia scoparia) [12]; 500 g ai/ha): 100
Ragweed plant response rating ([13]; 125 g ai/ha): 100
Ragweed plant response rating ([13]; 500 g ai/ha): 100
Foxtail, Giant plant response rating [14, 19]: 90
pest or weed control at 125 g/ha ([14]; Setaria faberi, post-emergence, 240 h, 125 g ai/ha, 0 no effect, 100 complete control, read-out: Plant response rating, Foxtail, Giant): 40%
Blackgrass plant response rating [15, 19]: 90
pest or weed control at 125 g/ha ([15]; Alopecurus myosuroides, post-emergence, 240 h, 125 g ai/ha, 0 no effect, 100 complete control, read-out: Plant response rating, Blackgrass): 50%
plant injury at 250 g/ha (rice (Oryza sativa); Oryza sativa, 360 h, read-out: Plant response rating, Rice (0 to 100 scale, 0 is no effect, 100 is complete control)): 10%
Foxtail, Giant plant response rating ([16]; 125 g ai/ha): 90
Foxtail, Giant plant response rating ([16]; 500 g ai/ha): 100
pest or weed control at 250 g/ha ([17]; Cyperus difformis, 360 h, read-out: Plant response rating, Sedge, Umbrella (0 to 100 scale, 0 is no effect, 100 is complete control)): 95%
Kochia plant response rating (kochia (Kochia scoparia) [18]; [19]): 90
pest or weed control at 125 g/ha (kochia (Kochia scoparia) [18]; Bassia scoparia, post-emergence, 240 h, 125 g ai/ha, 0 no effect, 100 complete control, read-out: Plant response rating, Kochia): 90%

Cc1ccc2c([C@@H](Nc3ncc(C(F)(F)F)c(N)n3)C3CC3)coc2c1 [Compound 91]
Plant response rating, Wheat [1, 20]: 0
Plant response rating, Wheat [1, 21]: 0
Ryegrass, Italian plant response rating ([2]; 125 g ai/ha): 0
Ryegrass, Italian plant response rating ([2]; 500 g ai/ha): 30
Pigweed plant response rating ([3]; 125 g ai/ha): 0
Pigweed plant response rating ([3]; 500 g ai/ha): 0
Plant response rating, Ducksalad (0 to 100 scale, 0 is no effect, 100 is complete control) [4]: 0
Plant response rating, Ryegrass, Italian [6, 20]: 0
Plant response rating, Ryegrass, Italian [6, 21]: 0
Barnyardgrass plant response rating ([7]; 125 g ai/ha): 0
Barnyardgrass plant response rating ([7]; 500 g ai/ha): 0
Plant response rating, Ragweed [8, 20]: 0
Plant response rating, Ragweed [8, 21]: 0
Plant response rating, Pigweed [9, 20]: 0
Plant response rating, Pigweed [9, 21]: 0
Plant response rating, Barnyardgrass (0 to 100 scale, 0 is no effect, 100 is complete control) [10]: 0
Plant response rating, Galium [11, 20]: 0
Plant response rating, Galium [11, 21]: 0
Kochia plant response rating (kochia (Kochia scoparia) [12]; 125 g ai/ha): 0
Kochia plant response rating (kochia (Kochia scoparia) [12]; 500 g ai/ha): 0
Ragweed plant response rating ([13]; 125 g ai/ha): 0
Ragweed plant response rating ([13]; 500 g ai/ha): 0
Plant response rating, Foxtail, Giant [14, 20]: 0
Plant response rating, Foxtail, Giant [14, 21]: 0
Plant response rating, Blackgrass [15, 20]: 0
Plant response rating, Blackgrass [15, 21]: 0
Plant response rating, Rice (0 to 100 scale, 0 is no effect, 100 is complete control) (rice (Oryza sativa)): 0
Foxtail, Giant plant response rating ([16]; 125 g ai/ha): 0
Foxtail, Giant plant response rating ([16]; 500 g ai/ha): 0
Plant response rating, Sedge, Umbrella (0 to 100 scale, 0 is no effect, 100 is complete control) [17]: 0
Plant response rating, Kochia (kochia (Kochia scoparia) [18]; [20]): 0
Plant response rating, Kochia (kochia (Kochia scoparia) [18]; [21]): 0
Plant response rating, Corn (corn (Zea mays); 125 g ai/ha): 0
Plant response rating, Corn (corn (Zea mays); 500 g ai/ha): 0

C[C@@H](Nc1ncc(C(F)(F)F)c(N)n1)c1cc2ccccc2[s+]1[O-] (stereo partly drawn) [Compound 113]
Plant response rating, Wheat [1, 22]: 0
Plant response rating, Wheat [1, 20]: 0
Ryegrass, Italian plant response rating ([2]; 31 g ai/ha): 0
Ryegrass, Italian plant response rating ([2]; 125 g ai/ha): 30
Plant response rating, Ducksalad (0 to 100 scale, 0 is no effect, 100 is complete control) [4]: 0
Plant response rating, Barnyardgrass [5, 22]: 0
Plant response rating, Barnyardgrass [5, 20]: 0
Plant response rating, Ryegrass, Italian [6, 22]: 0
Plant response rating, Ryegrass, Italian [6, 20]: 0
Barnyardgrass plant response rating ([7]; 31 g ai/ha): 0
Barnyardgrass plant response rating ([7]; 125 g ai/ha): 0
Plant response rating, Ragweed [8, 22]: 0
Plant response rating, Ragweed [8, 20]: 40
Plant response rating, Pigweed [9, 22]: 40
Plant response rating, Pigweed [9, 20]: 100
Plant response rating, Barnyardgrass (0 to 100 scale, 0 is no effect, 100 is complete control) [10]: 0
Plant response rating, Galium [11, 22]: 40
Plant response rating, Galium [11, 20]: 70
Kochia plant response rating (kochia (Kochia scoparia) [12]; 31 g ai/ha): 20
Kochia plant response rating (kochia (Kochia scoparia) [12]; 125 g ai/ha): 80
Ragweed plant response rating ([13]; 31 g ai/ha): 0
Ragweed plant response rating ([13]; 125 g ai/ha): 20
Plant response rating, Foxtail, Giant [14, 22]: 0
Plant response rating, Foxtail, Giant [14, 20]: 0
Plant response rating, Blackgrass [15, 22]: 0
Plant response rating, Blackgrass [15, 20]: 0
Plant response rating, Rice (0 to 100 scale, 0 is no effect, 100 is complete control) (rice (Oryza sativa)): 0
Foxtail, Giant plant response rating ([16]; 31 g ai/ha): 0
Foxtail, Giant plant response rating ([16]; 125 g ai/ha): 10
Plant response rating, Sedge, Umbrella (0 to 100 scale, 0 is no effect, 100 is complete control) [17]: 0
Plant response rating, Kochia (kochia (Kochia scoparia) [18]; [22]): 30
Plant response rating, Kochia (kochia (Kochia scoparia) [18]; [20]): 70
Plant response rating, Corn (corn (Zea mays); 31 g ai/ha): 20
Plant response rating, Corn (corn (Zea mays); 125 g ai/ha): 0

From patent US20220119354A1, “DIAMINO-SUBSTITUTED PYRIDINES AND PYRIMIDINES AS HERBICIDES” (FMC Corporation, priority 2019, published 2022)
